Toxic doses and inconclusive results are not listed. No stated cut-off is given here; in the data, active means T/C of 150% or more; inactive means T/C below 125%. Square brackets hold non-standard residues; d marks the D form. Peptide text beside a SMILES is read from it. * marks the point of attachment. ξ: configuration not given here. Cbz = O=C(OCc1ccccc1)*; ξT = CC(O)C(N)C(=O)O
Tested on: L1210 leukemia ip in BDF1 mice, survival T/C
Assay: NCI In Vivo Anticancer Drug Screen. Data for tumor model L1210 Leukemia (intraperitoneal) in B6D2F1 (BDF1) mice
Settings: endpoint: mean survival time, higher = longer survival
Procedure, shortened: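 Transplantable tumor model; survival measured in treated vs vehicle control mice. Value = treated/control.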

[1] = dose: 100.0 mg/kg/injection, schedule: Q04DX003 (ip), vehicle: saline
[2] = dose: 200.0 mg/kg/injection, schedule: Q04DX003 (ip), vehicle: saline
[3] = dose: 100.0 mg/kg/injection, schedule: Q01DX001 (ip), vehicle: saline
[4] = dose: 200.0 mg/kg/injection, schedule: Q01DX001 (ip), vehicle: saline
[5] = dose: 400.0 mg/kg/injection, schedule: Q01DX001 (ip), vehicle: saline
[6] = dose: 100.0 mg/kg/injection, schedule: Q04DX002 (ip), vehicle: saline with Tween-80
[7] = dose: 200.0 mg/kg/injection, schedule: Q04DX002 (ip), vehicle: saline with Tween-80
[8] = dose: 100.0 mg/kg/injection, schedule: Q01DX009 (ip), vehicle: Klucel (hydroxypropylcellulose) (HPC)
[9] = dose: 200.0 mg/kg/injection, schedule: Q01DX009 (ip), vehicle: Klucel (hydroxypropylcellulose) (HPC)
[10] = dose: 400.0 mg/kg/injection, schedule: Q01DX009 (ip), vehicle: Klucel (hydroxypropylcellulose) (HPC)
[11] = dose: 100.0 mg/kg/injection, schedule: Q04DX003 (ip), vehicle: Klucel (hydroxypropylcellulose) (HPC)
[12] = dose: 200.0 mg/kg/injection, schedule: Q04DX003 (ip), vehicle: Klucel (hydroxypropylcellulose) (HPC)
[13] = dose: 400.0 mg/kg/injection, schedule: Q04DX003 (ip), vehicle: Klucel (hydroxypropylcellulose) (HPC)
[14] = dose: 100.0 mg/kg/injection, schedule: Q04DX003 (ip), vehicle: saline with Tween-80
[15] = dose: 200.0 mg/kg/injection, schedule: Q04DX003 (ip), vehicle: saline with Tween-80
[16] = dose: 400.0 mg/kg/injection, schedule: Q04DX003 (ip), vehicle: saline with Tween-80

Measured: T/C

O=C(CCl)OCC1CC2C=CC1C2 (configuration not stated)
inactive: dose: 222.0 mg/kg/injection, schedule: Q01DX Z (ip), vehicle: saline 98 % of control | dose: 333.0 mg/kg/injection, schedule: Q01DX Z (ip), vehicle: saline 100 % of control | dose: 500.0 mg/kg/injection, schedule: Q01DX Z (ip), vehicle: saline 96 % of control

CCN(CC)COC(=O)C(C)(C)C
inactive: dose: 75.0 mg/kg/injection, schedule: Q01DX001 (ip), vehicle: carboxymethylcellulose (CMC) 103 % of control | dose: 150.0 mg/kg/injection, schedule: Q01DX001 (ip), vehicle: carboxymethylcellulose (CMC) 94 % of control

CNC(=O)c1ccccc1
inactive: [1] 104 % of control | [2] 98 % of control | dose: 400.0 mg/kg/injection, schedule: Q04DX003 (ip), vehicle: saline 98 % of control

CN1C(=O)NC(=O)C12CCNCC2
inactive: [3] 97 % of control | [4] 103 % of control | [5] 101 % of control

COC1OC(CI)C(OS(C)(=O)=O)C(OC(=O)c2ccccc2)C1OC(=O)c1ccccc1 (configuration not stated)
inactive: dose: 100.0 mg/kg/injection, schedule: Q04DX002 (ip), vehicle: Klucel (hydroxypropylcellulose) (HPC) 91 % of control | dose: 200.0 mg/kg/injection, schedule: Q04DX002 (ip), vehicle: Klucel (hydroxypropylcellulose) (HPC) 97 % of control

Cl[C](Cl)(Cl)[Hg][c]1ccccc1
inactive: dose: 3.0 mg/kg/injection, schedule: Q01DX009 (ip), vehicle: Klucel (hydroxypropylcellulose) (HPC) 88 % of control | dose: 6.0 mg/kg/injection, schedule: Q01DX009 (ip), vehicle: Klucel (hydroxypropylcellulose) (HPC) 92 % of control | dose: 12.0 mg/kg/injection, schedule: Q01DX009 (ip), vehicle: Klucel (hydroxypropylcellulose) (HPC) 90 % of control | dose: 12.5 mg/kg/injection, schedule: Q01DX009 (ip), vehicle: Klucel (hydroxypropylcellulose) (HPC) 110 % of control

COc1ccc(N=CN(C)C)nn1
inactive: [6] 91 % of control | [7] 97 % of control | dose: 400.0 mg/kg/injection, schedule: Q04DX002 (ip), vehicle: saline with Tween-80 97 % of control

O=C1C(=O)N2CCCCc3cccc1c32
inactive: dose: 50.0 mg/kg/injection, schedule: Q01DX001 (ip), vehicle: carboxymethylcellulose (CMC) 96 % of control | dose: 100.0 mg/kg/injection, schedule: Q01DX001 (ip), vehicle: carboxymethylcellulose (CMC) 108 % of control | dose: 200.0 mg/kg/injection, schedule: Q01DX001 (ip), vehicle: carboxymethylcellulose (CMC) 100 % of control | dose: 400.0 mg/kg/injection, schedule: Q01DX001 (ip), vehicle: carboxymethylcellulose (CMC) 101 % of control

CCCCCCCC/C=C\CCCCCCCC(=O)OCCCCCCCCCCCCCCCC
inactive: [8] 104 % of control | [9] 96 % of control | [10] 93 % of control

CCC(CC)C(=O)NC(N)=O
inactive: [11] 98 % of control | [12] 103 % of control | [13] 98 % of control

CC(C)=CCC/C(C)=C/CN1C(=O)CC(C)=C(C)C1=O
inactive: dose: 100.0 mg/kg/injection, schedule: Q01DX009 (ip), vehicle: saline with Tween-80 97 % of control | [14] 95 % of control | dose: 200.0 mg/kg/injection, schedule: Q01DX009 (ip), vehicle: saline with Tween-80 95 % of control | [15] 104 % of control | dose: 400.0 mg/kg/injection, schedule: Q01DX009 (ip), vehicle: saline with Tween-80 95 % of control | [16] 95 % of control

C=C(C)CN1C(=O)c2ccccc2C1=O
inactive: dose: 25.0 mg/kg/injection, schedule: Q01DX009 (ip), vehicle: gum acacia 94 % of control | dose: 50.0 mg/kg/injection, schedule: Q01DX009 (ip), vehicle: gum acacia 96 % of control | dose: 100.0 mg/kg/injection, schedule: Q01DX009 (ip), vehicle: gum acacia 88 % of control | dose: 100.0 mg/kg/injection, schedule: Q04DX003 (ip), vehicle: gum acacia 108 % of control | dose: 200.0 mg/kg/injection, schedule: Q04DX003 (ip), vehicle: gum acacia 97 % of control | dose: 400.0 mg/kg/injection, schedule: Q04DX003 (ip), vehicle: gum acacia 93 % of control

S=c1c2[nH]cnc2ncn1C1CCCCC1
inactive: dose: 4.4 mg/kg/injection, schedule: Q01DX009 (ip), vehicle: saline with Tween-80 96 % of control | dose: 6.7 mg/kg/injection, schedule: Q01DX009 (ip), vehicle: saline with Tween-80 102 % of control | dose: 10.0 mg/kg/injection, schedule: Q01DX009 (ip), vehicle: saline with Tween-80 90 % of control | dose: 15.0 mg/kg/injection, schedule: Q01DX009 (ip), vehicle: saline with Tween-80 95 % of control

CC1C(N2CCCCC2)CS1(=O)=O (configuration not stated)
inactive: dose: 100.0 mg/kg/injection, schedule: Q04DX002 (ip), vehicle: saline 121 % of control

COc1ccccc1-n1c(O)c(N=Nc2ccccc2C)c(=O)n(-c2ccc(Cl)cc2)c1=S
inactive: dose: 100.0 mg/kg/injection, schedule: Q01DX001 (ip), vehicle: Klucel (hydroxypropylcellulose) (HPC) 95 % of control | dose: 200.0 mg/kg/injection, schedule: Q01DX001 (ip), vehicle: Klucel (hydroxypropylcellulose) (HPC) 96 % of control | dose: 400.0 mg/kg/injection, schedule: Q01DX001 (ip), vehicle: Klucel (hydroxypropylcellulose) (HPC) 98 % of control

CC1=C2CC(C(C)(C)O)CCC2(C)CC/C1=N\N1CCCCC1 (configuration not stated)
inactive: dose: 100.0 mg/kg/injection, schedule: Q04DX003 (sc), vehicle: olive oil, sesame oil, peanut oil 100 % of control | dose: 200.0 mg/kg/injection, schedule: Q04DX003 (sc), vehicle: olive oil, sesame oil, peanut oil 107 % of control | dose: 400.0 mg/kg/injection, schedule: Q04DX003 (sc), vehicle: olive oil, sesame oil, peanut oil 105 % of control

CC(=O)Nc1ccc(C=O)cc1
inactive: [3] 100 % of control | [4] 97 % of control | [5] 116 % of control

CCN(CC)Cc1c(O)ccc2c3c(c(=O)oc12)CCCC3
inactive: dose: 10.0 mg/kg/injection, schedule: Q01DX001 (ip), vehicle: carboxymethylcellulose (CMC) 103 % of control | dose: 20.0 mg/kg/injection, schedule: Q01DX001 (ip), vehicle: carboxymethylcellulose (CMC) 97 % of control | dose: 40.0 mg/kg/injection, schedule: Q01DX001 (ip), vehicle: carboxymethylcellulose (CMC) 94 % of control | dose: 80.0 mg/kg/injection, schedule: Q01DX001 (ip), vehicle: carboxymethylcellulose (CMC) 96 % of control

CCCCC(CC)C1OC(=O)C(C)O1 (configuration not stated)
inactive: [8] 100 % of control | [11] 102 % of control | [9] 104 % of control | [12] 100 % of control | [10] 105 % of control | [13] 102 % of control

NNP(=O)(N1CCCCC1)N1CCCCC1
inactive: [6] 90 % of control | [7] 97 % of control

COC(=O)C(NC(=O)CNC(=O)OCc1ccccc1)C(C)O (stereo not drawn) (Cbz-Gly-[ξT]-OMe)
inactive: [14] 98 % of control | [15] 96 % of control | [16] 93 % of control

CCC1(O)C(=O)OCc2c1ccnc2Cl (configuration not stated)
inactive: dose: 50.0 mg/kg/injection, schedule: Q04DX003 (ip), vehicle: saline 105 % of control | [1] 116 % of control | [2] 103 % of control

CN=C1N[N+]2=C(C)CCCC2(C)S1 (configuration not stated)
inactive: [1] 101 % of control | [2] 89 % of control

FC(F)(F)c1cccc(N2CCNCC2)c1
inactive: dose: 75.0 mg/kg/injection, schedule: Q01DX001 (ip), vehicle: acid diluted with saline 90 % of control
